How the values were obtained:
NDL tumors [1] = details: stated as known; cited from earlier work
NDL tumors [2] = test: Intravenous DOX-loaded micelles: organ fluorescence in NDL tumor mice; format: in vivo, FVB mice; details: 24 and 72 h
[3] = Drug loading of micelles (thin film hydration, HPLC); format: physicochemical; details: drug encapsulated in dC18-1coi(P2K)-P750 micelles
Method: DOX, paclitaxel and rapamycin loaded micelles were prepared using identical procedures by thin film hydration method. dC18-1coi(P2K)-P750 and the different drugs were dissolved in methanol in a glass vial and the solvent was evaporated in vacuum oven for 3 hours. The dried film containing the conjugate and drug was rehydrated with 25 mM phosphate buffer, pH 7.4, and the solution was stirred for 16 hours to allow the assembly into drug loaded 3-helix micelles. Free drug was removed by centrifugation followed by spin ultrafiltration (Amicon centrifugal filter units, MW cutoff: 3000 Da). The concentrate obtained was washed with water and lyophilized to obtain drug loaded micelles. The drug loaded micelles were dissolved in methanol and loading was determined by reverse phase HPLC monitoring the absorbance of drugs at 280 nm. For all characterization experiments of drug loaded micelles, lyophilized powder of micellar-drugs was dissolved in 25 mM phosphate buffer, pH 7.4, and the solution was heated in water bath at 60° C. for an hour to break potential aggregates to obtain a clear solution.
The solvent was evaporated in vacuum oven for 3 hours. […] The salts and free drug were removed by centrifugation followed by spin ultrafiltration (Amicon centrifugal filter units, MW cutoff: 3000 Da). […]
Drug loading content was determined by HPLC. […]

[4] = CED, 20 μl, DOX 0.2 mg/ml, a week after infusion

SMILES | clearance time from blood circulation (NDL tumors [1]) | fluorescence in different organs after free DOX injections (NDL tumors [2]) | Loading (wt %) [3] | brain tissue toxicity (H&E staining) [4]
COc1cccc2c1C(=O)c1c(O)c3c(c(O)c1C2=O)C[C@@](O)(C(=O)CO)C[C@@H]3O[C@H]1C[C@H](N)[C@H](O)[C@H](C)O1 [Doxorubicin, doxorubicin] | tens of minutes | cannot be detected | 7.6 ± 0.4 wt % | significant tissue damage
CC(=O)O[C@H]1C(=O)[C@@]2(C)[C@H]([C@H](OC(=O)c3ccccc3)[C@]3(O)C[C@H](OC(=O)[C@H](O)[C@@H](NC(=O)c4ccccc4)c4ccccc4)C(C)=C1C3(C)C)[C@]1(OC(C)=O)CO[C@@H]1C[C@@H]2O [Paclitaxel, paclitaxel] | – | – | 1.9 ± 0.4 wt % | –

— patent publication US10806702B2, “Bis-polymer lipid-peptide conjugates and nanoparticles thereof” (THE REGENTS OF THE UNIVERSITY OF CALIFORNIA, priority 2012, dated 2020)
